Results published in US3960859A, “21-Deoxydihydroajmaline derivatives” (VEB Arzneimittelwerk Dresden, priority 1975, dated 1976).
Where a name gives a salt, the structure may show the parent alone.

How the values were obtained:
[1] = background statement; cited from earlier work
in vivo = conditions: for Q: Table 1, ratio not defined in text (equals LD50/ED20)
Excerpt: (§1) In the procedures the term ED20 designates the dose in mg/kg at which only isolated or sporadic ventricular extrasystoles occur.

[2] = system: aconitine-induced ventricular extrasystoles; assay: Aconitine test procedures carried out in rats (antiarrhythmic activity); format: in vivo
Excerpt: as §1

[3] = system: fibrillation or flutter generated by aconitine; format: in vivo; conditions: dog

Row | Structure (SMILES) | rhythm regulating / antiarrhythmic activity (in words) [1] | Q (in vivo) | LD50 (in vivo; rat, in vivo) [mg/kg] | ED20 ([2]; Rattus norvegicus) [mg/kg] | side effects ([3]; Example 3 (0.6 mg/kg)) | therapeutic effectiveness against aconitine fibrillation or flutter ([3]; Example 3 at 0.6 mg/kg compared with N-propylajmaline at 0.3 mg/kg) | undesirable side effects, share of cases ([3]; N-propylajmaline (0.3 mg/kg)) | LD50 (in vivo; Table 1, aconitine test procedures in rats, unit not given) | ED20 ([2]; aconitine test, rats, dose at which only isolated or sporadic ventricular extrasystoles occur) [mg/kg]
1 | CCC(C)C1CC2NC3CC4(c5ccccc5N(C)C24)C(O)C31 (stereo not shown) [21-deoxydihydroajmaline] | rhythm regulating activity is extensively lost | – | – | – | – | – | – | – | –
2 | CC[C@H]1[C@@H]2C[C@H]3[C@@H]4N(C)c5ccccc5[C@]45C[C@@H]([C@H]2[C@H]5O)N3[C@@H]1O [Ajmaline, ajmaline] | valuable antiarhythmic properties | 12.2 | 26 | 2.13 | – | – | – | – | –
3 | CCC(C)C1CC2C3N(C)c4ccccc4C34CC(C1C4O)N2CCN1CCCCC1 (stereo not drawn) [Example 3, 4-(β-piperidinoethyldeoxydihydroajmaline-dihydrochloride)] | – | 21.6 | 5.4 | 0.25 | no side effects | about the same therapeutic effectiveness as N-propylajmaline administered in a dose of 0.3 mg/kg | – | – | –
4 | CCC[N+]12[C@H](O)[C@@H](CC)[C@@H]3C[C@H]1[C@@H]1N(C)c4ccccc4[C@]14C[C@H]2[C@@H]3[C@H]4O [N-Propylajmaline, N-propylajmaline] | – | – | – | – | – | – | at least 30% | 1.4 | 0.17
